Source: PubChem BioAssay (NCI)
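Dose response: 5 concentrations. Exposure: 48 h. Format: 96-well plates. Endpoint: linear interpolation; highest concentration if not reached. GI50: concentration for 50% inhibition of growth. At the TGI there is no net growth.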

Assays:
Test in all cases: DTP human tumour cell line panel, 48 h
HS 578T breast = system: HS 578T breast
ACHN renal = system: ACHN renal
786-0 renal = system: 786-0 renal
CCRF-CEM leukemia = system: CCRF-CEM leukemia
OVCAR-4 ovarian = system: OVCAR-4 ovarian
UACC-257 melanoma = system: UACC-257 melanoma
HCC-2998 colon = system: HCC-2998 colon
UO-31 renal = system: UO-31 renal
SK-MEL-5 melanoma = system: SK-MEL-5 melanoma
M14 melanoma = system: M14 melanoma
KM12 colon = system: KM12 colon
HT29 colon = system: HT29 colon
SNB-75 CNS = system: SNB-75 CNS
MDA-MB-231 breast = system: MDA-MB-231 breast
MOLT-4 leukemia = system: MOLT-4 leukemia
MDA-MB-435 = system: MDA-MB-435
PC-3 prostate = system: PC-3 prostate
HL-60(TB) leukemia = system: HL-60(TB) leukemia
NCI-H522 lung = system: NCI-H522 lung
SR leukemia = system: SR leukemia
NCI-H226 lung = system: NCI-H226 lung
HCT-116 colon = system: HCT-116 colon
HOP-62 NSCLC = system: HOP-62 NSCLC
DU-145 prostate = system: DU-145 prostate
SK-MEL-28 melanoma = system: SK-MEL-28 melanoma
T-47D breast = system: T-47D breast
HOP-92 NSCLC = system: HOP-92 NSCLC
CAKI-1 renal = system: CAKI-1 renal
A549 NSCLC = system: A549 NSCLC
SF-539 CNS = system: SF-539 CNS
COLO 205 colon = system: COLO 205 colon
K-562 leukemia = system: K-562 leukemia
HCT-15 colon = system: HCT-15 colon
IGROV1 ovarian = system: IGROV1 ovarian
A498 renal = system: A498 renal
SF-295 CNS = system: SF-295 CNS
SW-620 colon = system: SW-620 colon
NCI-H460 lung = system: NCI-H460 lung
MCF7 breast = system: MCF7 breast
NCI-H23 lung = system: NCI-H23 lung
OVCAR-3 ovarian = system: OVCAR-3 ovarian
UACC-62 melanoma = system: UACC-62 melanoma
NCI/ADR-RES ovarian = system: NCI/ADR-RES ovarian
MALME-3M melanoma = system: MALME-3M melanoma
SNB-19 CNS = system: SNB-19 CNS
TK-10 renal = system: TK-10 renal
U251 CNS = system: U251 CNS
SK-OV-3 ovarian = system: SK-OV-3 ovarian
SN12C renal = system: SN12C renal
SK-MEL-2 melanoma = system: SK-MEL-2 melanoma
EKVX NSCLC = system: EKVX NSCLC
LOX IMVI melanoma = system: LOX IMVI melanoma
OVCAR-8 ovarian = system: OVCAR-8 ovarian
SF-268 CNS = system: SF-268 CNS
OVCAR-5 ovarian = system: OVCAR-5 ovarian
BT-549 breast = system: BT-549 breast
RPMI-8226 leukemia = system: RPMI-8226 leukemia

Which results are given for `N#Cc1cnc2ccc(-c3cnc4n[nH]nc4c3)cc2c1N1CCc2cc(F)c(Cl)cc21`?
GI50 (HS 578T breast): 1.18 µM; TGI (HS 578T breast): 5.26 µM; GI50 (ACHN renal): 3.62 µM; TGI (ACHN renal): 15.3 µM; GI50 (786-0 renal): 3.55 µM; TGI (786-0 renal): > 100 µM; GI50 (CCRF-CEM leukemia): 3.69 µM; TGI (CCRF-CEM leukemia): 21.1 µM; GI50 (OVCAR-4 ovarian): 2.66 µM; TGI (OVCAR-4 ovarian): 22.3 µM; GI50 (UACC-257 melanoma): 5.03 µM; TGI (UACC-257 melanoma): 44.2 µM; GI50 (HCC-2998 colon): 2.85 µM; TGI (HCC-2998 colon): 14.9 µM; GI50 (UO-31 renal): 1.13 µM; TGI (UO-31 renal): 11.1 µM; GI50 (SK-MEL-5 melanoma): 2.83 µM; TGI (SK-MEL-5 melanoma): 8.47 µM; GI50 (M14 melanoma): 5.15 µM; TGI (M14 melanoma): 38.2 µM; GI50 (KM12 colon): 4.66 µM; TGI (KM12 colon): 32.3 µM; GI50 (HT29 colon): 5.73 µM; TGI (HT29 colon): 35 µM; GI50 (SNB-75 CNS): 0.395 µM; TGI (SNB-75 CNS): 5.52 µM; GI50 (MDA-MB-231 breast): 3.64 µM; TGI (MDA-MB-231 breast): 23.3 µM; GI50 (MOLT-4 leukemia): 2.8 µM; TGI (MOLT-4 leukemia): 11.4 µM; GI50 (MDA-MB-435): 3.73 µM; TGI (MDA-MB-435): 28.6 µM; GI50 (PC-3 prostate): 3.11 µM; TGI (PC-3 prostate): 25.5 µM; GI50 (HL-60(TB) leukemia): 11.5 µM; TGI (HL-60(TB) leukemia): 43.6 µM; GI50 (NCI-H522 lung): 2.82 µM; TGI (NCI-H522 lung): 16.7 µM; GI50 (SR leukemia): 2.3 µM; TGI (SR leukemia): 25.8 µM; GI50 (NCI-H226 lung): 2.2 µM; TGI (NCI-H226 lung): 20 µM; GI50 (HCT-116 colon): 6.44 µM; TGI (HCT-116 colon): 25.3 µM; GI50 (HOP-62 NSCLC): 3.45 µM; TGI (HOP-62 NSCLC): 38.7 µM; GI50 (DU-145 prostate): 4.25 µM; TGI (DU-145 prostate): 66 µM; GI50 (SK-MEL-28 melanoma): 3.68 µM; TGI (SK-MEL-28 melanoma): 33.6 µM; GI50 (T-47D breast): 1.68 µM; TGI (T-47D breast): 8 µM; GI50 (HOP-92 NSCLC): 1.83 µM; TGI (HOP-92 NSCLC): 7.97 µM; GI50 (CAKI-1 renal): 2.99 µM; TGI (CAKI-1 renal): 25.2 µM; GI50 (A549 NSCLC): 3.92 µM; TGI (A549 NSCLC): 72.6 µM; GI50 (SF-539 CNS): 3.17 µM; TGI (SF-539 CNS): 18.9 µM; GI50 (COLO 205 colon): 9.19 µM; TGI (COLO 205 colon): 34.3 µM; GI50 (K-562 leukemia): 4.67 µM; TGI (K-562 leukemia): > 100 µM; GI50 (HCT-15 colon): 2.71 µM; TGI (HCT-15 colon): 14 µM; GI50 (IGROV1 ovarian): 1.42 µM; TGI (IGROV1 ovarian): 6.19 µM; GI50 (A498 renal): 1.87 µM; TGI (A498 renal): 6.69 µM; GI50 (SF-295 CNS): 2.54 µM; TGI (SF-295 CNS): 13.3 µM; GI50 (SW-620 colon): 5.2 µM; TGI (SW-620 colon): 24.6 µM; GI50 (NCI-H460 lung): 3.48 µM; TGI (NCI-H460 lung): 17.4 µM; GI50 (MCF7 breast): 1.92 µM; TGI (MCF7 breast): 14 µM; GI50 (NCI-H23 lung): 3.16 µM; TGI (NCI-H23 lung): 16.1 µM; GI50 (OVCAR-3 ovarian): 2.97 µM; TGI (OVCAR-3 ovarian): 24 µM; GI50 (UACC-62 melanoma): 2.63 µM; TGI (UACC-62 melanoma): 12.6 µM; GI50 (NCI/ADR-RES ovarian): 12.8 µM; TGI (NCI/ADR-RES ovarian): 53.3 µM; GI50 (MALME-3M melanoma): 2.91 µM; TGI (MALME-3M melanoma): 16.4 µM; GI50 (SNB-19 CNS): 3.9 µM; TGI (SNB-19 CNS): 77.9 µM; GI50 (TK-10 renal): 3.23 µM; TGI (TK-10 renal): 28.6 µM; GI50 (U251 CNS): 4.66 µM; TGI (U251 CNS): 86.6 µM; GI50 (SK-OV-3 ovarian): 3.52 µM; TGI (SK-OV-3 ovarian): 19.2 µM; GI50 (SN12C renal): 3.27 µM; TGI (SN12C renal): 41.7 µM; GI50 (SK-MEL-2 melanoma): 2.74 µM; TGI (SK-MEL-2 melanoma): 12.7 µM; GI50 (EKVX NSCLC): 3.26 µM; TGI (EKVX NSCLC): 18.5 µM; GI50 (LOX IMVI melanoma): 1.76 µM; TGI (LOX IMVI melanoma): 11.4 µM; GI50 (OVCAR-8 ovarian): 4.62 µM; TGI (OVCAR-8 ovarian): > 100 µM; GI50 (SF-268 CNS): 3.22 µM; TGI (SF-268 CNS): 84.6 µM; GI50 (OVCAR-5 ovarian): 4.07 µM; TGI (OVCAR-5 ovarian): 65.1 µM; GI50 (BT-549 breast): 2.31 µM; TGI (BT-549 breast): 14.6 µM; GI50 (RPMI-8226 leukemia): 3.02 µM; TGI (RPMI-8226 leukemia): 42.5 µM
